# In ChEMBL document CHEMBL1158462, “Recent advances in the development of polyamine analogues as antitumor agents” (J Med Chem, 2009):
# System: MCF-10A
# Assay: cells
# Type: functional, cell-based
# Conditions: Homo sapiens
# Description: Antitumor activity against human MCF10A cells
row,SMILES,IC50 [nM]
1,CC(C)(C)c1ccc(CNCCCCNC(=O)CCCCCCC(=O)c2ncco2)cc1,> 30000
2,Cc1cccc(NC(=O)c2ccc(CNC(=O)CCCCCCC(=O)NCCCNCCCCNCCC(c3ccccc3)c3ccccc3)cc2)c1,> 30000

# Biological target: T1, Histone deacetylase (Homo sapiens) (UniProt Q13547+O15379+Q9UBN7+Q92769+Q9UQL6+Q8WUI4+Q9BY41+Q96DB2+P56524+Q9UKV0+Q969S8)
# Assay: Inhibition of HDAC from human HeLa cells assessed as fold induction of alpha tubulin acetylation
# Type: cell-based
# Conditions: not given
row,fold change (FC),SMILES
1,253,CC(C)(C)c1ccc(CNCCCCNCCCNC(=O)CCCCCC(=O)NO)cc1

# System: NCI-H157
# Assay: Antitumor activity against human NCI-H157 cells by MTT assay
# Type: functional, cell-based
# Conditions: not given
row,SMILES,IC50 [nM]
1,CC(C)c1ccc(CNCCCNCCCNCCCNCc2ccc(C(C)C)cc2)cc1,4100
2,c1ccc(C(CCNCCCNCCCNCCCNCCC(c2ccccc2)c2ccccc2)c2ccccc2)cc1,4100
3,c1ccc(CCc2ccccc2CNCCCCNCCCNCc2ccccc2CCc2ccccc2)cc1,4200
4,CC1(C)C2CCC(CNCCCNCCCNCCCNCC3CCC4CCC3C4(C)C)C1CC2 (stereo not given),2800
5,CCCCNCCCCNCCCCNCCCNCC,2200
6,c1ccc(-c2ccccc2CNCCCNCCCCNCCCNCc2ccccc2-c2ccccc2)cc1,4100
7,c1ccc(C(CCNCCCNCCCCNCCCNCCC(c2ccccc2)c2ccccc2)c2ccccc2)cc1,3800
8,C=C(C)CNCCCNCCCNCCCNCC,700
9,c1ccc(C(CCNCCCCNCCCNCCC(c2ccccc2)c2ccccc2)c2ccccc2)cc1,4600
10,CCNCCCNCCCCNCCCNCC(CC)CC,3100
11,CCNCCCNCCCCNCCCNCCC(C)(C)C,1800
12,CC(C)c1ccc(CNCCCCNCCCNCc2ccc(C(C)C)cc2)cc1,4200
13,CCNCCCNCCCNCCCNC[C@@H](C)CC,1300
14,CCNCCCNCCCNCCCNCC(CC)CC,800
15,C(CCCNCCCNCC1CCCCCC1)CCCNCCCNCC1CCCCCC1,2900
16,CC(C)(C)c1ccc(CNCCCNCCCNCCCNCc2ccc(C(C)(C)C)cc2)cc1,4200

# Now from value to compound:
row,IC50 [nM],SMILES
1,1400,CCSCCNCCCNCCCNCCCNCCSCC
2,600,CCNCCCNCCCNCCCNCCC(C)C
3,4200,c1ccc(-c2ccccc2CNCCCNCCCNCCCNCc2ccccc2-c2ccccc2)cc1
4,1700,CCNCCCNCCCCNCCCNCCC(C)C
5,700,CCNCCCNCCCNCCCNCC1CCCCCC1
6,1300,CCNCCCNCCCNCCCNC(C)CC (stereo not given)
7,300,CCNCCCNCCCNCCCNCCSCC
8,4000,COc1cc(C(C)(C)C)cc(C(C)(C)C)c1CNCCCNCCCNCCCNCc1c(OC)cc(C(C)(C)C)cc1C(C)(C)C
9,1400,CCNCCCNCCCNCCCNC(C)C
10,3600,FC(F)(F)Sc1ccc(CNCCCNCCCNCCCNCc2ccc(SC(F)(F)F)cc2)cc1
11,4000,c1ccc(-c2ccccc2CNCCCCNCCCNCc2ccccc2-c2ccccc2)cc1
12,300,CCNCCCNCCCNCCCNCCSc1ccccc1

# System: MCF7
# Assay: cells
# Type: functional, cell-based
# Conditions: Homo sapiens
# Description: Antitumor activity against human MCF7 cells
row,IC50 [nM],SMILES
1,27000,CC(C)(C)c1ccc(CNCCCCNC(=O)CCCCCCC(=O)c2ncco2)cc1
2,> 30000,Cc1cccc(NC(=O)c2ccc(CNC(=O)CCCCCCC(=O)NCCCNCCCCNCCC(c3ccccc3)c3ccccc3)cc2)c1

# Biological target: T1, Histone deacetylase (Homo sapiens)
# Assay: not given
# Conditions: HeLa, at 5 µM
row,inhibition [%],SMILES
1,43.7,CC(C)(C)c1ccc(CNCCCCNC(=O)CCCCCCC(=O)c2ncco2)cc1
2,42.6,Cc1cccc(NC(=O)c2ccc(CNC(=O)CCCCCCC(=O)NCCCNCCCCNCCC(c3ccccc3)c3ccccc3)cc2)c1

# System: not listed separately
# Assay: Antitumor activity against human H82 cells
# Type: functional, cell-based
# Conditions: NCI-H82
row,SMILES,IC50 [nM]
1,CCNCCCNCCCCNCCCNCCC(C)(C)C,900
2,CCNCCCNCCCNCCCNC[C@@H](C)CC,1300

# Continued, values first:
row,IC50 [nM],SMILES
1,700,CCNCCCNCCCNCCCNCC1CCCCCC1
2,800,CCNCCCNCCCNCCCNC(C)CC (stereo not given)

# System: A549
# Assay: Antitumor activity against human A549 cells
# Type: functional, cell-based
# Conditions: not given
row,IC50 [nM],SMILES
1,800,CCNCCCNCCCNCCCNC(C)CC (stereo not given)
2,900,CCNCCCNCCCCNCCCNCCC(C)(C)C

# System: Malme-3M
# Assay: Antitumor activity against human MALME-3M cells
# Type: functional, cell-based
# Conditions: not given
row,IC50 [nM],SMILES
1,3000,CC(C)NCCCNCCCCNCCCNC(C)C
2,1000,CCNCCCCNCCCCNCCCCNCC [DIETHYLHOMOSPERMINE]

# System: NCI-H69
# Assay: Antitumor activity against human H69 cells
# Type: functional, cell-based
# Conditions: not given
row,IC50 [nM],SMILES
1,800,CCNCCCNCCCNCCCNC(C)CC (stereo not given)
2,900,CCNCCCNCCCCNCCCNCCC(C)(C)C
